Assay results published in paper PMC6915728 (Nature Communications, 2019).
Read-outs that look alike come from different tables or passages of the source.

Assays:
[1] = test system: E. coli BW25113 overexpression strains (ASKA plasmids); assay: Minimum inhibitory concentration (MIC), serial broth dilution, single-gene overexpression strains vs empty-vector control; type: cell-based, Escherichia coli; conditions: broth dilution, MS medium, 100 µM IPTG, 30 °C, 20-24 h, OD600, 3 replicates
Experimental: Minimum inhibitory concentrations (MIC) were determined with a standard serial broth dilution technique with a minor modification. Specifically, instead of a two-fold dilution series, smaller AMP concentration steps were used (typically 1.2-fold) for two reasons. […] Second, gene overexpressions caused typically only small changes in the MICs of AMPs and therefore higher resolution was required. The protocol was as follows. From a stock solution of an AMP, 12-steps serial dilution was prepared in fresh MS medium in 96-well microtiter plates. Each AMP was represented in 11 different concentrations (3 wells per AMP concentration per strain). Three wells contained only medium to check the growth in the absence of AMP. After overnight growth in MS medium supplemented with chloramphenicol, bacterial strains were diluted 20-fold into fresh MS medium and grown until the cell density reached OD600 ~1. Cells were induced by 100 µM of IPTG and incubated for 1 h at 30 °C with continuous shaking at 300 rpm. Following incubation, approximately half-million cells were inoculated into the wells of the 96-well microtiter plate with a 96‐pin replicator. We used three independent replicates for each strain and the corresponding control. Two rows in the 96-well plate contained only MS medium in order to obtain the background OD value of the medium. Plates were incubated at 30 °C with continuous shaking at 300 rpm. After 20–24 h of incubation, OD600 values were measured in a microplate reader (Biotek Synergy 2).

[2] = test system: AMP-evolved E. coli lines; conditions: ref Spohn et al 2019, cited from earlier work
Text: Supplement 41467_2019_13618_MOESM13_ESM.xlsx, sheet "Figure 6 and S15" | column: A comprehensive dataset of antimicrobial susceptibility of AMP-adapted lines to antimicrobial peptides (AMPs).

bacterial membrane = conditions: literature mining; ref superscript numbers in the cell, listed in Supplementary Data 7 sheet References; cited from earlier work
Text: Supplement 41467_2019_13618_MOESM10_ESM.xlsx, sheet "AMP details" | column: Pore formation

[3] = test system: E. coli K12 BW25113 carrying the pooled ASKA overexpression plasmid library (~4400 ORFs); assay: Chemical-genetic profiling: pooled competitive growth of the ASKA gene-overexpression library with and without AMP, deep sequencing readout; type: cell-based, Escherichia coli; conditions: overexpressed gene aaaD; presence vs absence of AMP; average of biological replicates
Text: We generated chemical-genetic interaction profiles for a diverse set of AMPs (Table 1) by screening them against a comprehensive library of gene overexpressions in E. coli[21]. Increasing gene dosage is a widely applied approach to reveal the targets of small-molecule antibiotics[22],[23]. It also informs on the ‘latent resistome’, that is, the collection of genes where a change from native expression level enhances resistance to a particular drug[24]. We applied a sensitive competition assay by monitoring growth of a pooled plasmid library, overexpressing all the E. coli ORFs (Fig. 1a), as we reported earlier. Specifically, E. coli cells carrying the pooled plasmid collection were grown in the presence or absence of one of the 15 AMPs tested, at a sub-inhibitory concentration that increased the doubling time of the whole population by 2-fold. Following 12 generations of growth, the plasmid pool was isolated from each selection and the relative abundance of each plasmid was determined by a deep sequencing readout (see Methods).
We carried out chemical-genetic profiling to determine the impact of the overexpression of each E. coli ORF on bacterial susceptibility to each of the 15 different AMPs. To this end, we used the complete set of E. coli K-12 Open Reading Frame Archive (ASKA) plasmid library (GFP minus) where each E. coli ORF is cloned into a high copy number expression plasmid (pCA24N-ORFGFP(-)). Prior to screening, the ASKA library was grown in the original host strain E. coli K-12 AG1 in 96-well plates (growth conditions: 37 °C, 280 rpm, LB medium). An equal aliquot of each member of the ASKA library (each well of the 96-well plates) was pooled together and the plasmid DNA (pCA24N-ORF-GFP(-)) was isolated and transformed into E. coli K12 BW25113 strain[51]. To obtain a negative control strain not having any overexpressed gene, the plasmid without a cloned ORF (pCA24N-noORF) was also transformed into the same E. coli strain. Then, on the pooled collection, we applied a previously reported competitive growth assay. Specifically, the pooled overexpression library and the control strain were grown in parallel in MS medium supplemented with 20 µg per ml chloramphenicol and the overexpression was induced by 100 µM isopropyl-ß-D-thiogalactopyranoside (IPTG). After 1 h induction, ~5 × 10^5 bacterial cells from the library were inoculated into each well of a 96-well microtiter plate containing a concentration gradient of an AMP in the MS medium supplemented with 20 µg per ml chloramphenicol and 100 µM IPTG. At the same time, both the library and the control strain with the empty plasmid were grown in the absence of any AMPs. We took special care to grow both of these samples in the exact same conditions as the samples in the presence of AMPs. Bacterial growth was monitored in a microplate reader (Biotek Synergy 2) for 24 h. At the end of the exponential growth phase, we selected those wells in which the doubling time of the cell population was increased by 2-fold. Then, from these wells, cells were split into four equal proportion and each was transferred into 20 mL of MS medium supplemented with the corresponding AMP in four different concentrations in the range that slowed down growth by two-fold in the microtitre plate. […] The rationale for this 2-step process was to maintain competition in exponential phase for 12 generations of growth, efficiently control the growth rate in a reproducible manner and obtain the plasmid pool with standard DNA isolation protocol (innuPREP plasmid mini Kit, Analytik Jena AG) in a yield that is enough for the downstream analysis. The cultures were vigorously shaken along the entire protocol to make sure that the cultures are completely homogeneous and therefore biasing interactions between clones (such as trans-resistance) was minimized. […]

[4] = test system: E. coli gene overexpression; conditions: gene prfA overexpressed; ref 11 (Matsumoto et al. 2017); cited from earlier work
Text: Supplement 41467_2019_13618_MOESM1_ESM.docx, table 1: Supplementary Table 1. Collected examples of E. coli gene overexpression from the literature as a confirmation of our chemical-genetic screen results. | column: Overexpression phenotype

[5] = overexpression strain mlaD, MIC of the overexpression strain / MIC of the control strain (wild-type carrying the empty plasmid)

## GWGSFFKKAAHVGKHVGKAALTHYL [PLEU, Pleurocidin, antimicrobial peptide from Pleuronectes americanus; cluster C2]
[1]; [5]
  Relative MIC: 1
[1]; overexpression strain nikB, MIC of overexpression strain / MIC of empty-plasmid control
  Relative MIC: 0.8
[2]; AMP-adapted line BAC5_3
  Relative change in MIC (MIC of the AMP-adpated line / MIC of the ancestral strain): 1
[2]; AMP-adapted line BAC5_5
  Relative change in MIC (MIC of the AMP-adpated line / MIC of the ancestral strain): 0.8
[2]; AMP-adapted line BAC5_7
  Relative change in MIC (MIC of the AMP-adpated line / MIC of the ancestral strain): 1
[2]; AMP-adapted line BAC5_10
  Relative change in MIC (MIC of the AMP-adpated line / MIC of the ancestral strain): 1
[2]; AMP-adapted line CAP18_2
  Relative change in MIC (MIC of the AMP-adpated line / MIC of the ancestral strain): 2.1
[2]; AMP-adapted line CAP18_5
  Relative change in MIC (MIC of the AMP-adpated line / MIC of the ancestral strain): 2.5
[2]; AMP-adapted line CAP18_6
  Relative change in MIC (MIC of the AMP-adpated line / MIC of the ancestral strain): 2.3
[2]; AMP-adapted line CAP18_8
  Relative change in MIC (MIC of the AMP-adpated line / MIC of the ancestral strain): 1.7
[2]; AMP-adapted line CAP18_10
  Relative change in MIC (MIC of the AMP-adpated line / MIC of the ancestral strain): 4.3
[2]; AMP-adapted line HBD3_3
  Relative change in MIC (MIC of the AMP-adpated line / MIC of the ancestral strain): 1.3
[2]; AMP-adapted line HBD3_6
  Relative change in MIC (MIC of the AMP-adpated line / MIC of the ancestral strain): 1.7
[2]; AMP-adapted line HBD3_8
  Relative change in MIC (MIC of the AMP-adpated line / MIC of the ancestral strain): 1.7
[2]; AMP-adapted line HBD3_10
  Relative change in MIC (MIC of the AMP-adpated line / MIC of the ancestral strain): 1.3
[2]; AMP-adapted line LL37_1
  Relative change in MIC (MIC of the AMP-adpated line / MIC of the ancestral strain): 1.4
[2]; AMP-adapted line LL37_3
  Relative change in MIC (MIC of the AMP-adpated line / MIC of the ancestral strain): 1.2
[2]; AMP-adapted line LL37_6
  Relative change in MIC (MIC of the AMP-adpated line / MIC of the ancestral strain): 1.4
[2]; AMP-adapted line LL37_7
  Relative change in MIC (MIC of the AMP-adpated line / MIC of the ancestral strain): 64
[2]; AMP-adapted line LL37_10
  Relative change in MIC (MIC of the AMP-adpated line / MIC of the ancestral strain): 1.6
[2]; AMP-adapted line PEX_1
  Relative change in MIC (MIC of the AMP-adpated line / MIC of the ancestral strain): 2.3
[2]; AMP-adapted line PEX_4
  Relative change in MIC (MIC of the AMP-adpated line / MIC of the ancestral strain): 2.3
[2]; AMP-adapted line PEX_5
  Relative change in MIC (MIC of the AMP-adpated line / MIC of the ancestral strain): 1.4
[2]; AMP-adapted line PEX_6
  Relative change in MIC (MIC of the AMP-adpated line / MIC of the ancestral strain): 2.8
[2]; AMP-adapted line PEX_7
  Relative change in MIC (MIC of the AMP-adpated line / MIC of the ancestral strain): 1.7
[2]; AMP-adapted line PR39_1
  Relative change in MIC (MIC of the AMP-adpated line / MIC of the ancestral strain): 1.4
[2]; AMP-adapted line PR39_2
  Relative change in MIC (MIC of the AMP-adpated line / MIC of the ancestral strain): 1.1
[2]; AMP-adapted line PR39_5
  Relative change in MIC (MIC of the AMP-adpated line / MIC of the ancestral strain): 1
[2]; AMP-adapted line PR39_7
  Relative change in MIC (MIC of the AMP-adpated line / MIC of the ancestral strain): 0.9
[2]; AMP-adapted line PR39_10
  Relative change in MIC (MIC of the AMP-adpated line / MIC of the ancestral strain): 0.9
[2]; AMP-adapted line PROA_2
  Relative change in MIC (MIC of the AMP-adpated line / MIC of the ancestral strain): 1.6
[2]; AMP-adapted line PROA_3
  Relative change in MIC (MIC of the AMP-adpated line / MIC of the ancestral strain): 0.9
[2]; AMP-adapted line PROA_7
  Relative change in MIC (MIC of the AMP-adpated line / MIC of the ancestral strain): 1.1
[2]; AMP-adapted line PROA_8
  Relative change in MIC (MIC of the AMP-adpated line / MIC of the ancestral strain): 1.2
[2]; AMP-adapted line PROA_9
  Relative change in MIC (MIC of the AMP-adpated line / MIC of the ancestral strain): 0.9
[2]; AMP-adapted line PXB_2
  Relative change in MIC (MIC of the AMP-adpated line / MIC of the ancestral strain): 0.9
[2]; AMP-adapted line PXB_5
  Relative change in MIC (MIC of the AMP-adpated line / MIC of the ancestral strain): 1.6
[2]; AMP-adapted line PXB_6
  Relative change in MIC (MIC of the AMP-adpated line / MIC of the ancestral strain): 4.8
[2]; AMP-adapted line PXB_8
  Relative change in MIC (MIC of the AMP-adpated line / MIC of the ancestral strain): 2.1
[2]; AMP-adapted line PXB_10
  Relative change in MIC (MIC of the AMP-adpated line / MIC of the ancestral strain): 6.3
Bacterial membrane
  Pore formation (whether AMP makes pores in the bacterial membrane): Yes18

## GNNRPVYIPQPRPPHPRL [AP, Apidaecin IB, antimicrobial peptide, source Apis mellifera L; cluster C3]
[3]
  Chemical-genetic score: -0.578 log2 fold change
[1]; overexpression strain cvpA, MIC of overexpression strain / MIC of empty-plasmid control
  Relative MIC: 0.64
[1]; overexpression strain gadW, MIC of overexpression strain / MIC of empty-plasmid control
  Relative MIC: 2.5
[1]; overexpression strain lptB, MIC of overexpression strain / MIC of empty-plasmid control
  Relative MIC: 0.64
[1]; [5]
  Relative MIC: 0.6
[4]
  Overexpression phenotype, Literature: Resistance^11
